{"source": "ChEMBL document CHEMBL3758118", "about": "“Effects of a novel carbocyclic analog of pyrrolo[2,3-d]pyrimidine nucleoside on pleiotropic induction of cell death in prostate cancer cells with different androgen responsiveness” (2016)", "key": {"LNCaP [1]": {"test_system": "LNCaP", "test": "Induction of apoptosis in human LNCaP C4-2 cells assessed as increase in cleaved PARP level at 9 uM after 48 hrs by western blot analysis", "format": "functional, cell-based"}, "[2]": {"test": "Cell cycle distribution in human LNCaP C4-2 cells assessed as accumulation at sub-G1 phase at 9 uM for 48 hrs in presence of 100 uM AR inhibitor flutamide by propidium-iodide staining based flow cytometry", "format": "functional"}, "DU-145 [3]": {"test_system": "DU-145", "test": "Induction of apoptosis in human DU145 cells assessed as active caspase-3 level at 6 um after 24 hrs by western blotting analysis", "format": "functional, cell-based"}, "LNCaP [4]": {"test_system": "LNCaP", "test": "Induction of apoptosis in human LNCAP cells assessed as increase in p21(Cip1) expression at 6 uM after 24 hrs by western blotting analysis", "format": "functional, cell-based"}, "LNCaP [5]": {"test_system": "LNCaP", "test": "Induction of apoptosis in human LNCAP cells assessed as caspase-8 expression at 6 uM after 24 hrs cell pretreated with 100 uM AR inhibitor flutamide by western blot analysis", "format": "functional, cell-based"}, "LNCaP [6]": {"test_system": "LNCaP", "test": "Induction of apoptosis in human LNCaP C4-2 cells assessed as increase in p21(Cip1) expression at 9 uM after 48 hrs in presence of 100 uM AR inhibitor flutamide by western blotting analysis", "format": "functional, cell-based"}, "LNCaP [7]": {"test_system": "LNCaP", "test": "Induction of apoptosis in human LNCAP cells assessed as p21(Cip1) mRNA level at 6 uM in presence of 100 uM AR inhibitor flutamide by semiquantitative RT-PCR technique relative to control", "format": "functional"}, "LNCaP [8]": {"test_system": "LNCaP", "test": "Induction of apoptosis in human LNCaP C4-2 cells assessed as increase in caspase3 level at 9 uM after 48 hrs in presence of 100 uM AR inhibitor flutamide by western blot analysis", "format": "functional, cell-based"}, "LNCaP [9]": {"test_system": "LNCaP", "test": "Induction of apoptosis in human LNCAP cells assessed as increase active caspase3 level at 6 uM after 24 hrs by western blotting analysis", "format": "functional, cell-based"}, "LNCaP [10]": {"test_system": "LNCaP", "test": "Induction of apoptosis in human LNCAP cells assessed as formation of crescent shaped apoptotic bodies at 6 uM after 24 hrs by transmission electron microscopic analysis", "format": "functional, cell-based"}, "LNCaP [11]": {"test_system": "LNCaP", "test": "Induction of apoptosis in human LNCAP cells assessed as caspase-3 expression at 6 uM after 24 hrs cell pretreated with 100 uM AR inhibitor flutamide by western blot analysis", "format": "functional, cell-based"}, "LNCaP [12]": {"test_system": "LNCaP", "test": "Induction of apoptosis in human LNCAP cells assessed as caspase-9 expression at 6 uM after 24 hrs cell pretreated with 100 uM AR inhibitor flutamide by western blot analysis", "format": "functional, cell-based"}, "LNCaP [13]": {"test_system": "LNCaP", "test": "Antiproliferative activity against human LNCaP C4-2 cells assessed as cell viability at 6 uM after 48 hrs by MTT assay", "format": "functional, cell-based"}, "[14]": {"test": "Cell cycle distribution in human LNCaP C4-2 cells assessed as accumulation at sub-G1 phase at 9 uM after 48 hrs by propidium iodide staining based flow cytometry", "format": "functional"}, "DU-145 [15]": {"test_system": "DU-145", "test": "Induction of apoptosis in human DU145 cells assessed as increase in cleaved PARP level at 6 uM after 48 hrs by western blotting analysis", "format": "functional, cell-based"}, "DU-145 [16]": {"test_system": "DU-145", "test": "Induction of apoptosis in human DU145 cells assessed as cleaved PARP level at 6 uM after 24 hrs by western blotting analysis", "format": "functional, cell-based"}, "DU-145 [17]": {"test_system": "DU-145", "test": "Induction of apoptosis in human DU145 cells assessed as accumulation of autophagic vacuoles in cytoplasm at 6 uM after 24 hrs by fluorescence microscopic analysis", "format": "functional, cell-based"}, "DU-145 [18]": {"test_system": "DU-145", "test": "Induction of apoptosis in human DU145 cells assessed as DNA fragmentation at 6 uM after 48 hrs in presence of 5 mM autophagy inhibitor 3-methyladenine by TUNEL assay", "format": "functional, cell-based"}, "LNCaP [19]": {"test_system": "LNCaP", "test": "Induction of apoptosis in human LNCAP cells assessed as increase in cleaved PARP level at 6 uM after 24 hrs by western blotting analysis", "format": "functional, cell-based"}, "DU-145 [20]": {"test_system": "DU-145", "test": "Induction of apoptosis in human DU145 cells assessed as increase in p21(Cip1) expression at 6 uM after 48 hrs by western blotting analysis", "format": "functional, cell-based"}, "LNCaP [21]": {"test_system": "LNCaP", "test": "Induction of apoptosis in human LNCaP C4-2 cells assessed as increase in caspase3 level at 9 uM after 48 hrs by western blotting analysis", "format": "functional, cell-based"}, "DU-145 [22]": {"test_system": "DU-145", "test": "Induction of apoptosis in human DU145 cells assessed as chromatin condensation at 6 uM after 24 hrs by transmission electron microscopic analysis", "format": "functional, cell-based"}, "LNCaP [23]": {"test_system": "LNCaP", "test": "Induction of apoptosis in human LNCAP cells assessed as cleaved PARP expression at 6 uM after 24 hrs cell pretreated with 100 uM AR inhibitor flutamide by western blot analysis", "format": "functional, cell-based"}, "LNCaP [24]": {"test_system": "LNCaP", "test": "Antiproliferative activity against human LNCAP cells assessed as cell viability at 6 uM after 24 hrs by MTT assay", "format": "functional, cell-based"}, "DU-145 [25]": {"test_system": "DU-145", "test": "Induction of apoptosis in human DU145 cell assessed as p21(Cip1) expression at 6 uM after 24 hrs by western blotting analysis", "format": "functional, cell-based"}, "LNCaP [26]": {"test_system": "LNCaP", "test": "Antiproliferative activity against human LNCaP C4-2 cells assessed as cell viability at 6 uM after 24 hrs by MTT assay", "format": "functional, cell-based"}, "DU-145 [27]": {"test_system": "DU-145", "test": "Induction of apoptosis in human DU145 cells assessed as formation of crescent shaped apoptotic bodies at 6 uM after 24 hrs by transmission electron microscopic analysis", "format": "functional, cell-based"}, "LNCaP [28]": {"test_system": "LNCaP", "test": "Cell cycle distribution in human LNCAP cells assessed as accumulation at sub-G1 phase at 6 uM after 24 hrs in presence of 100 uM AR inhibitor flutamide by propidium-iodide staining based flow cytometry", "format": "functional"}, "LNCaP [29]": {"test_system": "LNCaP", "test": "Induction of apoptosis in human LNCaP C4-2 cells assessed as increase in p21(Cip1) expression at 9 uM after 48 hrs by western blotting analysis", "format": "functional, cell-based"}, "LNCaP [30]": {"test_system": "LNCaP", "test": "Induction of apoptosis in human LNCAP cells assessed as p21(Cip1) expression at 6 uM after 24 hrs cell pretreated with 100 uM AR inhibitor flutamide by western blot analysis", "format": "functional, cell-based"}, "LNCaP [31]": {"test_system": "LNCaP", "test": "Induction of apoptosis in human LNCAP cells assessed as chromatin condensation at 6 uM after 24 hrs by transmission electron microscopic analysis", "format": "functional, cell-based"}, "LNCaP [32]": {"test_system": "LNCaP", "test": "Induction of apoptosis in human LNCAP cells assessed as increase in p21(Cip1) mRNA level at 6 uM by semiquantitative RT-PCR technique relative to control", "format": "functional"}, "LNCaP [33]": {"test_system": "LNCaP", "test": "Induction of apoptosis in human LNCaP C4-2 cells assessed as increase in cleaved PARP level at 9 uM after 48 hrs in presence of 100 uM AR inhibitor flutamide by western blot analysis", "format": "functional, cell-based"}, "LNCaP [34]": {"test_system": "LNCaP", "test": "Induction of apoptosis in human LNCaP C4-2 cells assessed as increase p21(Cip1) mRNA level at 9 uM by semiquantitative RT-PCR technique relative to control", "format": "functional"}, "LNCaP [35]": {"test_system": "LNCaP", "test": "Antiproliferative activity against human LNCaP C4-2 cells assessed as cell viability at 9 uM after 48 hrs by MTT assay", "format": "functional, cell-based"}, "LNCaP [36]": {"test_system": "LNCaP", "test": "Induction of apoptosis in human LNCAP cells assessed as cleaved PARP level at 6 uM by western blot analysis", "format": "functional, cell-based"}, "LNCaP [37]": {"test_system": "LNCaP", "test": "Induction of apoptosis in human LNCAP cells assessed as p21(Cip1) expression at 6 uM by western blotting analysis", "format": "functional, cell-based"}, "LNCaP [38]": {"test_system": "LNCaP", "test": "Induction of apoptosis in human LNCAP cells assessed as caspase3 level at 6 uM by western blot analysis", "format": "functional, cell-based"}}, "note": "The source made the active and inactive calls. The rule behind the calls is not given here."}
{"molecule": "NC(=O)c1c(Br)nc2n(C3CCCC3)cnc(N)c1-2", "values": [{"measurement": "Activity", "setting": "LNCaP [1]", "result": "Active"}, {"measurement": "Activity", "setting": "[2]", "result": "Active"}, {"measurement": "Activity", "setting": "DU-145 [3]", "result": "inactive"}, {"measurement": "Activity", "setting": "LNCaP [4]", "result": "Active"}, {"measurement": "Activity", "setting": "LNCaP [5]", "result": "inactive"}, {"measurement": "Activity", "setting": "LNCaP [6]", "result": "Active"}, {"measurement": "fold change (FC)", "setting": "LNCaP [7]", "result": 0.38}, {"measurement": "Activity", "setting": "LNCaP [8]", "result": "Active"}, {"measurement": "Activity", "setting": "LNCaP [9]", "result": "Active"}, {"measurement": "Activity", "setting": "LNCaP [10]", "result": "Active"}, {"measurement": "Activity", "setting": "LNCaP [11]", "result": "inactive"}, {"measurement": "Activity", "setting": "LNCaP [12]", "result": "inactive"}, {"measurement": "Activity", "setting": "LNCaP [13]", "result": "Active"}, {"measurement": "Activity", "setting": "[14]", "result": 30, "unit": "%"}, {"measurement": "Activity", "setting": "DU-145 [15]", "result": "Active"}, {"measurement": "Activity", "setting": "DU-145 [16]", "result": "inactive"}, {"measurement": "Activity", "setting": "DU-145 [17]", "result": "Active"}, {"measurement": "Activity", "setting": "DU-145 [18]", "result": "inactive"}, {"measurement": "Activity", "setting": "LNCaP [19]", "result": "Active"}, {"measurement": "Activity", "setting": "DU-145 [20]", "result": "Active"}, {"measurement": "Activity", "setting": "LNCaP [21]", "result": "Active"}, {"measurement": "Activity", "setting": "DU-145 [22]", "result": "inactive"}, {"measurement": "Activity", "setting": "LNCaP [23]", "result": "inactive"}, {"measurement": "Activity", "setting": "LNCaP [24]", "result": "Active"}, {"measurement": "Activity", "setting": "DU-145 [25]", "result": "inactive"}, {"measurement": "Activity", "setting": "LNCaP [26]", "result": "inactive"}, {"measurement": "Activity", "setting": "DU-145 [27]", "result": "inactive"}, {"measurement": "Activity", "setting": "LNCaP [28]", "result": "inactive"}, {"measurement": "Activity", "setting": "LNCaP [29]", "result": "Active"}, {"measurement": "Activity", "setting": "LNCaP [30]", "result": "inactive"}, {"measurement": "Activity", "setting": "LNCaP [31]", "result": "Active"}, {"measurement": "fold change (FC)", "setting": "LNCaP [32]", "result": 56.98}, {"measurement": "Activity", "setting": "LNCaP [33]", "result": "Active"}, {"measurement": "fold change (FC)", "setting": "LNCaP [34]", "result": 23}, {"measurement": "Activity", "setting": "LNCaP [35]", "result": "Active"}]}
{"molecule": "NC(=O)c1c(Br)n(C2CCCC2)c2ncnc(N)c12", "values": [{"measurement": "Activity", "setting": "LNCaP [36]", "result": "inactive"}, {"measurement": "Activity", "setting": "LNCaP [37]", "result": "inactive"}, {"measurement": "Activity", "setting": "LNCaP [38]", "result": "inactive"}]}
